# According to patent US11633335B2, “Skin cleansing composition” (KAO CORPORATION, priority 2017, dated 2023):
# Experiments:
# [1] = cited from earlier work
# [2] = Keratotic plug detergency (penetration): penetration of the sample into keratotic plugs one minute after contact, digital microscope; set-up: species or system human; conditions: contact with the sample for 1 minute; samples of Table 1
# Method: Keratotic plugs in the nasal region were removed with “Biore Nose Pack (manufactured by Kao Corporation)”, the resulting keratotic plugs on the pack were gently taken out with tweezers. […] Consequently, the sample entered into the gap between the slide glass and the cover glass by capillary phenomenon and was brought into contact with the keratotic plugs. The contact of the keratotic plugs and the sample was recorded with a digital microscope (VHX-5000, manufactured by Keyence Corporation, magnification: 150×), and the penetration of the sample into the keratotic plugs and the collapse state of the keratotic plugs were evaluated after one minute from the contact of the keratotic plugs with the sample. The results of each evaluation are shown in the columns “Keratotic plug detergency (penetration)” and “Keratotic plug detergency (during cleansing)” in Tables. The measurements were performed at 25° C. The penetration was relatively evaluated by criteria with 11 ratings starting from the rating 1 “the sample hardly penetrated into the keratotic plug” to the rating 11 “the sample penetrated to the center of the keratotic plug”. The collapsibility by the detergency against keratotic plug was relatively evaluated by criteria with 11 ratings starting from the rating 1 “almost no change is observed in the external appearance of the keratotic plug” to the rating 11 “peeling or separation is observed in the area from the surface layer to the central portion of the keratotic plug (the initial appearance of the keratotic plug is not retained)”.
# [3] = Keratotic plug detergency after washing with water: collapse state one minute after contact with water; set-up: species or system human; conditions: sample substituted with water; samples of Table 1
# Description: The penetration was relatively evaluated by criteria with 11 ratings starting from the rating 1 “the sample hardly penetrated into the keratotic plug” to the rating 11 “the sample penetrated to the center of the keratotic plug”. The collapsibility by the detergency against keratotic plug was relatively evaluated by criteria with 11 ratings starting from the rating 1 “almost no change is observed in the external appearance of the keratotic plug” to the rating 11 “peeling or separation is observed in the area from the surface layer to the central portion of the keratotic plug (the initial appearance of the keratotic plug is not retained)”. After one minute from the contact of the keratotic plugs with the sample, Kimwipes (registered trademark) was brought into contact with an edge of the cover glass to remove the sample under the cover glass. […] The results of the evaluation are shown in the column “Keratotic plug detergency (during washing with water)” in Table. The measurements were performed at 25° C.
# [4] = Keratotic plug detergency (during cleansing): collapse state of keratotic plugs one minute after contact with the sample; set-up: species or system human; conditions: contact with the sample for 1 minute; samples of Table 1
# Method: Keratotic plugs in the nasal region were removed with “Biore Nose Pack (manufactured by Kao Corporation)”, the resulting keratotic plugs on the pack were gently taken out with tweezers.
# The resulting keratotic plugs were placed on a slide glass and were covered with a cover glass, and 0.05 mL of a sample was dropwise added to an edge of the cover glass. Consequently, the sample entered into the gap between the slide glass and the cover glass by capillary phenomenon and was brought into contact with the keratotic plugs. The contact of the keratotic plugs and the sample was recorded with a digital microscope (VHX-5000, manufactured by Keyence Corporation, magnification: 150×), and the penetration of the sample into the keratotic plugs and the collapse state of the keratotic plugs were evaluated after one minute from the contact of the keratotic plugs with the sample. The results of each evaluation are shown in the columns “Keratotic plug detergency (penetration)” and “Keratotic plug detergency (during cleansing)” in Tables. The measurements were performed at 25° C.
# The penetration was relatively evaluated by criteria with 11 ratings starting from the rating 1 “the sample hardly penetrated into the keratotic plug” to the rating 11 “the sample penetrated to the center of the keratotic plug”. The collapsibility by the detergency against keratotic plug was relatively evaluated by criteria with 11 ratings starting from the rating 1 “almost no change is observed in the external appearance of the keratotic plug” to the rating 11 “peeling or separation is observed in the area from the surface layer to the central portion of the keratotic plug (the initial appearance of the keratotic plug is not retained)”.
# [5] = system: insoluble protein (seine protein); assay: Evaluation of effect of suppressing protein aggregation (precipitation of insoluble protein); conditions: sample of Table 1
# Method: Thirty milliliters of a sample and 0.06 g of an insoluble protein (seine protein) were placed in a 35-mL standard glass bottle, and the concentration of the insoluble protein was adjusted to 0.2 mass % (test sample). Separately, a standard sample was prepared by using water instead of the sample and adjusting the concentration of the insoluble protein to 0.2 mass %. Subsequently, the standard glass bottles were sufficiently shaken and stirred up and down (shake width: 15 cm, 20 times at a rate of 5 times for 3 seconds) in a thermostatic chamber of 25° C. and were left to stand for 3 minutes. The precipitation state of the insoluble protein was then visually verified, and the ratio of the amount of the precipitated standard sample to the amount of the precipitated test sample (the height of the precipitate in each standard glass bottle was measured as the precipitation amount), (precipitation amount of standard sample)/(precipitation amount of test sample), was calculated. A higher ratio indicates a higher effect of suppressing protein aggregation.
Compound,solubility in water (in words) [1],penetration of the sample into keratotic plugs (in words) [2],collapse of keratotic plugs during washing with water (in words) [3],"collapse of keratotic plugs in contact with the sample, assumption of cleansing (in words) [4]",action on proteins (in words) [5]
"CC(C)(N)CO [AMP, 2-amino-2-methyl-1-propanol]",readily dissolved in water,the sample penetrated into keratotic plugs,further accelerating the collapse of keratotic plugs,,
"NC(CO)(CO)CO [Tris, 2-amino-2-hydroxymethyl-1,3-propanediol]",readily dissolved in water,,,,
O=P([O-])([O-])O.[Na+].[Na+] [disodium hydrogen phosphate],,the sample hardly penetrated into keratotic plugs,the collapse of keratotic plugs did not progress,the collapse of the keratotic plugs did not progress,
O=C([O-])O.[Na+] [sodium hydrogen carbonate],,the sample hardly penetrated into keratotic plugs,the collapse of keratotic plugs did not progress,the collapse of the keratotic plugs did not progress,
O=P([O-])([O-])[O-].[Na+].[Na+].[Na+] [trisodium phosphate],,the sample hardly penetrated into keratotic plugs,the collapse of keratotic plugs did not progress,the collapse of the keratotic plugs did not progress,
sodium polyoxyethylene (2) lauryl ether sulfate [POE (2) sodium lauryl sulfate],,hardly penetrated into the keratotic plugs,,the collapse of the keratotic plugs did not progress,the action on proteins was strong to dissolve the proteins
